Columns and labels:
Ir-LBP [1] = target: T1, Ir-LBP (Ixodes ricinus, UniProt B7ZDG7); test: Competitive binding: inhibition of 3H-LTB4 binding to Ir-LBP by eicosanoids; settings: 2 h; for decrease of the binding of 1 nM 3H-LTB4 to Ir-LBP: competitor at 10 µM
Description: The specificity of this binding was then evaluated by incubating Ir-LBP with increasing concentrations of different eicosanoids (LTB4, LTD4, LTC4, LTE4, 12(R)-hydroxyeicosatetraenoic acid (HETE), 15(S)-hydroxyperoxyeicosatetraenoic acid (HpETE), LTA4 methyl ester and 5 (S), 6 (R)-Lipoxin A4) in the presence of a fixed concentration of ^3H-LTB4 (Figure 1B). […] On the other hand, only at a very high concentration of 10 µM were LTD4, LTE4 and 12(R)-HETE able to decrease the binding of 1 nM of ^3H-LTB4 to Ir-LBP by approximately 30%. […] Furthermore, this interaction is reversible. The addition of an excess of cold LTB4 (10 µM) for 2 h displaces the binding between Ir-LBP and 1 nM of ^3H-LTB4 (data not shown). […] This binding may only be displaced by very high concentrations (10 µM versus nM) of eicosanoid analogs.
(§1) The dissociation constant was measured in PBS (pH 7.4) using purified Ir-LBP and an increasing amount of ^3H-LTB4. Non-specific binding was determined by measuring bound radioactivity in the absence of Ir-LBP. Protein precipitation with polyethylene glycol 8000 was used to separate bound from free histamine. Protein-bound radioactivity was determined with a Wallac 1409 scintillation counter. Saturation experiments were analyzed by non-linear regression using the curve fitting program GraphPad Prism® (GraphPad software, San Diego, CA, U.S.A.), B = (Bmax [F])/KD+[F]), where B is the amount of bound ligand at equilibrium, Bmax is the maximum number of binding sites, [F] is the concentration of free ligand and KD is the ligand dissociation constant. Competitive binding assays were performed using purified Ir-LBP with 1 nM of ^3H-LTB4 and an increasing amount of unlabelled competitor for 2 h.

neutrophils [2] = test system: neutrophils; design: method as in PMID 12770944, PMID 10588632; settings: BLT1 antagonists; cited from earlier work
Ir-LBP [3] = target: T1, Ir-LBP; test: Saturation curve and Scatchard analysis for LTB4 binding to Ir-LBP (Figure 1A), ligand as substance; settings: saturation curve, 3H-LTB4
Human neutrophils = test: Neutrophil apoptosis assay (Annexin-V-FITC/PI, flow cytometry); format: cell-based; settings: LTB4 10^-7 M, 24 h of culture
Description: Human blood neutrophils were obtained from buffy coats (Transfusion Center, Liege, Belgium). Neutrophils were separated from mononuclear cells by density centrifugation (Histopaque; Sigma-Aldrich). Contaminating erythrocytes were removed from the neutrophil fraction by hypotonic lysis. Neutrophil purity, determined by counting cytospin preparations stained with Diff-Quick (Dade Behring), was always >95%. Neutrophils were cultured at a density of 2×10^6 cells/ml in RPMI-1640 supplemented with 1% glutamine, 10% FCS, 50 µg/ml streptomycin, and 50 IU/ml penicillin (all from Gibco BRL). Neutrophils were cultured in the absence or presence of 10^−7 M LTB4 (Sigma-Aldrich) and/or 0.2–2 µg/ml Ir-LBP.
Apoptosis was assessed by staining with Annexin-V-FITC and propidium iodide (PI) using the Annexin-V-FLUOS staining kit (Roche), following the manufacturer's recommendations. Flow cytometry analyses were performed with a FACSAria™ (BD Biosciences).

BLT1 = target: BLT1; design: method as in PMID 6097945, PMID 6323613, PMID 2823316; settings: read-out: Kd of BLT1 for LTB4; cited from earlier work
BLT2 = target: BLT2; design: method as in PMID 10934230; settings: read-out: Kd of BLT2 for LTB4; cited from earlier work
neutrophils [4] = test system: neutrophils; design: method as in PMID 9261334; settings: BLT1 and BLT2 antagonist; cited from earlier work
R53T/R73A = test system: T2, R53T/R73A; test: Saturation binding of ^3H-LTB4 (PBS pH 7.4, PEG 8000 precipitation) to wild-type and mutant Ir-LBP expressed in 293T cells.; settings: SD
T2 construct: pCDNA3.1/V5-His-TOPO, expressed in 293T cells
Source text: (§2) In order to determine which amino acids of Ir-LBP are involved in the binding to LTB4, we produced mutants designed on the basis of the dynamic model established in silico. […] For the interaction with the second hydroxyl group, the residue selected to be mutated is Arg 73. The choice was made on this residue because Glu 188 is conserved for all LIRs and should thus not be as specific as Arg 73; furthermore, Arg 53 is bridged to Arg 73 by an aspartic residue from the loop corresponding to the Ω loop in Ra-HBP2. The two hydroxyl groups and the two Arg bridged by Asp Ω could form an interacting network, further stabilizing the binding with LTB4. Two single mutants were therefore produced by replacing Arg 53 with threonine (R53T) and Arg 73 with alanine (R73A). A double mutant (R53T/R73A) was also produced by combining the 2 substitutions of the single mutants. A null mutant was also constructed by replacing serine 124 with threonine (S124T). […] Therefore, the affinity of this mutant for LTB4 should not be affected. These mutants and “wild type” Ir-LBP were expressed in 293T cells, and analyzed to determine their dissociation constant for LTB4.
(§3) Site-directed mutagenesis of Ir-LBP in pCDNA3.1/V5-His-TOPO
(§4) Subconfluent 293T cells in 35-mm diameter wells (Orange Scientific) were transfected with […] plasmid DNA and […] Fugene 6 (Roche Biochemicals) in Dulbecco's modified Eagle's medium (DMEM, Invitrogen) without FCS. The medium was harvested after 72 h. Pooled supernatants were cleared by centrifugation, concentrated 10-fold by filtration on 10000 NMWL membranes (Millipore), ultracentrifuged at 140,000 g before use, and finally stored at −80°C. Concentrated culture supernatants were analyzed by western blotting on a Hybond ECL membrane (GE healthcare) using an anti-V5 primary antibody (Invitrogen), an IgHRP conjugate as secondary antibody and the ECL detection reagent (GE healthcare) according to the manufacturer's instructions. The coding regions of Ir-LBP were amplified by PCR (94°C for 30 s, 56°C for 30 s, 72°C for 1 min.; 30 cycles) using ExTaq DNA Polymerase (Taqara). […]
as §1, with “Protein precipitation with polyethylene glycol 8000 was used to separate bound from free histamine.” left out, “Competitive binding assays were performed using purified Ir-LBP with 1 nM of ^3H-LTB4 and an increasing amount of unlabelled competitor for 2 h.” left out

R53T = test system: T3, R53T; test: as above; settings: SD
T3 construct: pCDNA3.1/V5-His-TOPO, expressed in 293T cells
Source text: as §2, §3, §4
as §1, with “Protein precipitation with polyethylene glycol 8000 was used to separate bound from free histamine.” left out, “Competitive binding assays were performed using purified Ir-LBP with 1 nM of ^3H-LTB4 and an increasing amount of unlabelled competitor for 2 h.” left out

R73A = test system: T4, R73A; test: as above; settings: SD
T4 construct: pCDNA3.1/V5-His-TOPO, expressed in 293T cells
Source text: as §2, §3, §4
as §1, with “Protein precipitation with polyethylene glycol 8000 was used to separate bound from free histamine.” left out, “Competitive binding assays were performed using purified Ir-LBP with 1 nM of ^3H-LTB4 and an increasing amount of unlabelled competitor for 2 h.” left out

S124T = test system: T5, S124T; test: as above; settings: SD
T5 construct: pCDNA3.1/V5-His-TOPO, expressed in 293T cells
Source text: as §2, §3, §4
as §1, with “Protein precipitation with polyethylene glycol 8000 was used to separate bound from free histamine.” left out, “Competitive binding assays were performed using purified Ir-LBP with 1 nM of ^3H-LTB4 and an increasing amount of unlabelled competitor for 2 h.” left out

T1 sequence (B7ZDG7 20-200 limits assumed): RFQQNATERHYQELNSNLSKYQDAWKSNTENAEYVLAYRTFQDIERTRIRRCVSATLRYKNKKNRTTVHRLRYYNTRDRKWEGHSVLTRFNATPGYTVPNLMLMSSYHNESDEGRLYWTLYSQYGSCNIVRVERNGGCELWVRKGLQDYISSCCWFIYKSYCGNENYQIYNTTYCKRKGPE

Structure (SMILES): CCCCC[C@H](O)/C=C/C=C\C=C\C=C\[C@@H](O)[C@@H](O)CCCC(=O)O [5(S), 6(R)-Lipoxin A4, 5 (S), 6 (R)-Lipoxin A4]
- decrease of the binding of 1 nM 3H-LTB4 to Ir-LBP (Ir-LBP [1]): unable to compete

Structure (SMILES): CCCCC/C=C\C[C@@H](O)/C=C/C=C\C/C=C\CCCC(=O)O [12(R)-HETE, 12(R)-hydroxyeicosatetraenoic acid]
- decrease of the binding of 1 nM 3H-LTB4 to Ir-LBP (Ir-LBP [1]): approximately 30%

Structure (SMILES): CCCCC[C@@H](/C=C/C=C\C/C=C\C/C=C\CCCC(=O)O)OO [15(S)-HpETE, 15(S)-hydroxyperoxyeicosatetraenoic acid]
- decrease of the binding of 1 nM 3H-LTB4 to Ir-LBP (Ir-LBP [1]): unable to compete

Structure (SMILES): O=C(O)C1(c2ccc3c(c2)OC[C@H](Cc2ccc(-c4ccccc4)cc2)[C@H]3O)CCCC1 [CP-105696]
- inhibition of the apoptosis delay induced by LTB4 (neutrophils [2]): capable of inhibiting

Structure (SMILES): CCCCC/C=C\C\C=C/C=C/C=C/[C@@H]1O[C@H]1CCCC(=O)OC [LTA4 methyl ester]
- decrease of the binding of 1 nM 3H-LTB4 to Ir-LBP (Ir-LBP [1]): unable to compete

Structure (SMILES): CCCCC/C=C\C[C@@H](O)/C=C/C=C/C=C\[C@@H](O)CCCC(=O)O [LTB4, Leukotriene B4]
- Kd (Ir-LBP [3]): 590 pM
- IC50 (Ir-LBP [1]; 1 nM 3H-LTB4, unlabelled competitor): 5700 pM
- apoptosis levels versus untreated controls (Human neutrophils): significantly lower
- Kd (BLT1): ~1000 pM
- Kd (BLT2): ~23000 pM

Structure (SMILES): CCCCC/C=C\C\C=C/C=C/C=C/[C@@H](SC[C@H](NC(=O)CC[C@H](N)C(=O)O)C(=O)NCC(=O)O)[C@@H](O)CCCC(=O)O [LTC4]
- decrease of the binding of 1 nM 3H-LTB4 to Ir-LBP (Ir-LBP [1]): unable to compete

Structure (SMILES): CCCCC/C=C\C\C=C/C=C/C=C/[C@@H](SC[C@H](N)C(=O)NCC(=O)O)[C@@H](O)CCCC(=O)O [LTD4]
- decrease of the binding of 1 nM 3H-LTB4 to Ir-LBP (Ir-LBP [1]): approximately 30%

Structure (SMILES): CCCCC/C=C\C\C=C/C=C/C=C/[C@@H](SC[C@H](N)C(=O)O)[C@@H](O)CCCC(=O)O [LTE4]
- decrease of the binding of 1 nM 3H-LTB4 to Ir-LBP (Ir-LBP [1]): approximately 30%

Structure (SMILES): COc1ccc(/C=C/CCCCOc2cccc(OCCCCC(=O)O)c2CCC(=O)O)cc1 [ONO-4057]
- inhibition of endothelial transmigration of neutrophils (neutrophils [4]): totally inhibits

Structure (SMILES): COc1ccc(CCCCCCCCOc2ccc(C[S+]([O-])c3cccc(N)c3)nc2/C=C/C(=O)[O-])cc1.[Li+] (stereo not shown) [SB201146]
- inhibition of the apoptosis delay induced by LTB4 (neutrophils [2]): capable of inhibiting

Structure (SMILES): CCCCC/C=C\C[C@@H](O)/C=C/C=C/C=C\[C@@H](O)CCCC(=O)O [^3H-LTB4, tritiated leukotriene B4]
- Kd (R53T/R73A): 4230 pM
- Kd (R53T): 430 pM
- Kd (R73A): 870 pM
- Kd (S124T): 450 pM

From PMC2600610, “Ir-LBP, an Ixodes ricinus Tick Salivary LTB4-Binding Lipocalin, Interferes with Host Neutrophil Function” (PLoS ONE, 2008)
